Experimental data taken from ChEMBL document CHEMBL1201862, “PubChem BioAssay data set” (2004).
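Growth conditions: 96-well plates. Treatment: test compound, 48 hours, 5 concentrations. Analysis: linear interpolation between bracketing concentrations; unreached endpoints set to highest concentration. Abbreviation: GI50, concentration required for 50% inhibition of growth.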 Calls of active or inactive are those of the source. Cut-off read from the data, not from the text of the source: active = GI50 up to about 1.1 µM and inactive = higher.

Assays:
Test in all cases: DTP human tumour cell line panel, 48 h
786-0 = test system: 786-0
A498 = test system: A498
ACHN = test system: ACHN
CAKI-1 = test system: CAKI-1
CCRF-CEM = test system: CCRF-CEM
COLO 205 = test system: COLO 205
DLD-1 = test system: DLD-1
DMS-114 = test system: DMS-114
DMS-273 = test system: DMS-273
HCC 2998 = test system: HCC 2998
HCT-116 = test system: HCT-116
HL-60 = test system: HL-60
HOP-62 = test system: HOP-62
HOP-92 = test system: HOP-92
IGROV-1 = test system: IGROV-1
K562 = test system: K562
LXFL 529 = test system: LXFL 529
M14 = test system: M14
M19-MEL = test system: M19-MEL
MOLT-4 = test system: MOLT-4
Malme-3M = test system: Malme-3M
NCI-H226 = test system: NCI-H226
NCI-H23 = test system: NCI-H23
NCI-H460 = test system: NCI-H460
NCI-H522 = test system: NCI-H522
OVCAR-4 = test system: OVCAR-4
RPMI-8226 = test system: RPMI-8226
RXF 631 = test system: RXF 631
SF-268 = test system: SF-268
SF-539 = test system: SF-539
SK-MEL-28 = test system: SK-MEL-28
SK-MEL-2 = test system: SK-MEL-2
SK-OV-3 = test system: SK-OV-3
SN12C = test system: SN12C
SNB-75 = test system: SNB-75
SNB-78 = test system: SNB-78
SR = test system: SR
UACC-62 = test system: UACC-62
UO-31 = test system: UO-31
A549 = test system: A549
HCT-15 = test system: HCT-15
HT-29 = test system: HT-29
KM-20L2 = test system: KM-20L2
KM12 = test system: KM12
LOX IMVI = test system: LOX IMVI
OVCAR-3 = test system: OVCAR-3
OVCAR-5 = test system: OVCAR-5
OVCAR-8 = test system: OVCAR-8
SF-295 = test system: SF-295
SNB-19 = test system: SNB-19
SW-620 = test system: SW-620
TK-10 = test system: TK-10
U-251 = test system: U-251
UACC-257 = test system: UACC-257
XF498 = test system: XF498

SMILES: COc1cc([C@H]2Oc3cc(O)c4c(=O)cc(-c5ccc(O)cc5)oc4c3O[C@@H]2CO)ccc1O
- GI50 (786-0): 15.3 µM (inactive)
- GI50 (A498): 16.8 µM (inactive)
- GI50 (ACHN): 12.9 µM (inactive)
- GI50 (CAKI-1): 15.1 µM (inactive)
- GI50 (CCRF-CEM): 13.6 µM (inactive)
- GI50 (COLO 205): 15.2 µM (inactive)
- GI50 (DLD-1): 15.3 µM (inactive)
- GI50 (DMS-114): 15.9 µM (inactive)
- GI50 (DMS-273): 14.2 µM (inactive)
- GI50 (HCC 2998): 15 µM (inactive)
- GI50 (HCT-116): 13.5 µM (inactive)
- GI50 (HL-60): 18.8 µM (inactive)
- GI50 (HOP-62): 14.5 µM (inactive)
- GI50 (HOP-92): 25.5 µM (inactive)
- GI50 (IGROV-1): 19.7 µM (inactive)
- GI50 (K562): 23.4 µM (inactive)
- GI50 (LXFL 529): 15.1 µM (inactive)
- GI50 (M14): 16.8 µM (inactive)
- GI50 (M19-MEL): 17.7 µM (inactive)
- GI50 (MOLT-4): 18.7 µM (inactive)
- GI50 (Malme-3M): 18.8 µM (inactive)
- GI50 (NCI-H226): 18.5 µM (inactive)
- GI50 (NCI-H23): 14.6 µM (inactive)
- GI50 (NCI-H460): 4.54 µM (inactive)
- GI50 (NCI-H522): 4.76 µM (inactive)
- GI50 (OVCAR-4): 20.1 µM (inactive)
- GI50 (RPMI-8226): 16.1 µM (inactive)
- GI50 (RXF 631): 10.6 µM (inactive)
- GI50 (SF-268): 2.28 µM (inactive)
- GI50 (SF-539): > 10 µM (inactive)
- GI50 (SK-MEL-28): 14.5 µM (inactive)
- GI50 (SK-MEL-2): 16.1 µM (inactive)
- GI50 (SK-OV-3): 14.6 µM (inactive)
- GI50 (SN12C): > 10 µM (inactive)
- GI50 (SNB-75): 5.45 µM (inactive)
- GI50 (SNB-78): 14.6 µM (inactive)
- GI50 (SR): 15.3 µM (inactive)
- GI50 (UACC-62): 11.1 µM (inactive)
- GI50 (UO-31): 12.6 µM (inactive)

SMILES: CCOC(=O)C1=C(c2ccccc2)NC(c2ccccc2)=C(C(=O)OCC)c2c1c(=O)cc[nH]c2=O
- GI50 (786-0): > 100 µM (inactive)
- GI50 (A549): > 100 µM (inactive)
- GI50 (ACHN): 72.8 µM (inactive)
- GI50 (CAKI-1): > 100 µM (inactive)
- GI50 (COLO 205): > 100 µM (inactive)
- GI50 (DLD-1): > 100 µM (inactive)
- GI50 (DMS-273): > 100 µM (inactive)
- GI50 (HCC 2998): > 100 µM (inactive)
- GI50 (HCT-116): > 100 µM (inactive)
- GI50 (HCT-15): > 100 µM
- GI50 (HL-60): > 100 µM (inactive)
- GI50 (HOP-62): > 100 µM (inactive)
- GI50 (HOP-92): 71.6 µM (inactive)
- GI50 (HT-29): 74.8 µM (inactive)
- GI50 (IGROV-1): > 100 µM (inactive)
- GI50 (K562): 39.9 µM (inactive)
- GI50 (KM-20L2): > 100 µM (inactive)
- GI50 (KM12): > 100 µM (inactive)
- GI50 (LOX IMVI): 62.1 µM (inactive)
- GI50 (LXFL 529): > 100 µM (inactive)
- GI50 (M14): > 100 µM (inactive)
- GI50 (M19-MEL): > 100 µM (inactive)
- GI50 (MOLT-4): 63.1 µM (inactive)
- GI50 (Malme-3M): > 100 µM (inactive)
- GI50 (NCI-H226): > 100 µM (inactive)
- GI50 (NCI-H23): 79.4 µM (inactive)
- GI50 (NCI-H460): > 100 µM (inactive)
- GI50 (NCI-H522): 84.1 µM (inactive)
- GI50 (OVCAR-3): > 100 µM (inactive)
- GI50 (OVCAR-4): 92.3 µM (inactive)
- GI50 (OVCAR-5): > 100 µM (inactive)
- GI50 (OVCAR-8): > 100 µM (inactive)
- GI50 (RPMI-8226): 53.1 µM (inactive)
- GI50 (RXF 631): 34.7 µM (inactive)
- GI50 (SF-268): > 100 µM (inactive)
- GI50 (SF-295): 86.7 µM (inactive)
- GI50 (SF-539): > 100 µM (inactive)
- GI50 (SK-MEL-28): 66.1 µM (inactive)
- GI50 (SK-MEL-2): > 100 µM (inactive)
- GI50 (SK-OV-3): > 100 µM (inactive)
- GI50 (SN12C): > 100 µM (inactive)
- GI50 (SNB-19): > 100 µM (inactive)
- GI50 (SNB-75): > 100 µM (inactive)
- GI50 (SNB-78): 94 µM (inactive)
- GI50 (SR): 83.8 µM (inactive)
- GI50 (SW-620): > 100 µM (inactive)
- GI50 (TK-10): > 100 µM (inactive)
- GI50 (U-251): > 100 µM (inactive)
- GI50 (UACC-257): 99.8 µM (inactive)
- GI50 (UACC-62): 26.4 µM (inactive)
- GI50 (UO-31): > 100 µM (inactive)
- GI50 (XF498): > 100 µM (inactive)
